Biological target: T1, Rheb (Homo sapiens, UniProt Q15382)
T1 construct: GST-tagged Rheb amino acids 1–169
Assay: RP-HPLC of nucleotide released from purified denatured GST-Rheb
Type: binding

T1 sequence (Q15382 1-169): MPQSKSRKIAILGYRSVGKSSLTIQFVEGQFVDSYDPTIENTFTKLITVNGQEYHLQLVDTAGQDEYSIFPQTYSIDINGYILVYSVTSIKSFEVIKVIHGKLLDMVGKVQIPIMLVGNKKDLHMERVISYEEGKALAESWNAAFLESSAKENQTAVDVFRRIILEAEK

Nc1nc2c(ncn2[C@@H]2O[C@H](CO[P@](=O)(O)OP(=O)(O)O)[C@@H](O)[C@H]2O)c(=O)[nH]1 [GDP]
RP-HPLC of nucleotide released from purified denatured GST-Rheb: glutathione-S-transferase (GST)-tagged Rheb, which had a substantial GDP-bound fraction

— PMC12205066, “Lysosomal EGFR acts as a Rheb-GEF independent of its kinase activity to activate mTORC1” (Cell Research, 2025)
